Like-named read-outs stand apart in the source and are kept apart here.
Columns and labels:
NDM-1 = NDM-1 (Klebsiella pneumoniae, UniProt C7C422); assay: Enzyme activity: determination of IC50, fluorescence assay with CCF2-FA substrate; type: biochemical; settings: CCF2-FA 1.25 μM, 2 hours at 25° C.
In short: (§1)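 Enzyme (1 pM NDM-1, 2 pM IMP-1, 30 pM VIM-1) incubated with inhibitor (20 to 0.00063 μM) and 1.25 μM CCF2-FA in 100 mM KH2PO4 pH 7, 0.005% Tween-20, 10 μM ZnSO4, 2 h at 25 °C. Fluorescence read at 460 nm (ex 405 nm); IC50 by 4-parameter fit.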

VIM-1 = VIM-1 (Pseudomonas aeruginosa, UniProt A0A0F7KYQ8); assay: as above; type: biochemical; settings: CCF2-FA 1.25 μM, 2 hours at 25° C.
In short: as §1

IMP-1 = IMP-1 (Serratia marcescens, UniProt P52699); assay: as above; type: biochemical; settings: CCF2-FA 1.25 μM, 2 hours at 25° C.
IMP-1, sequence (P52699 19-246, looked up, species assumed): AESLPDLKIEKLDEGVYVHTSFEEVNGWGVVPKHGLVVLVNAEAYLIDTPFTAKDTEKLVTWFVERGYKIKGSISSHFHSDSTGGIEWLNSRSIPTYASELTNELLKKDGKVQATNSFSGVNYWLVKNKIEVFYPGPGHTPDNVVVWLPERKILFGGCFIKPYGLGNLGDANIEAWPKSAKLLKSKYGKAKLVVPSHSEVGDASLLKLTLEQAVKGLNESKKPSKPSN
In short: as §1

[1] = test system: Serratia marcescens expressing IMP-1 (CL5741); assay: Antibiotic potentiation activity: synergistic concentration (MITC95) with imipenem, growth by OD600; type: cell-based; settings: 95% inhibition of bacterial growth, strain CL5741
In short: (§2)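 Strains grown overnight at 35° C, resuspended in saline, diluted 1:100 into 1.1×CAMHB; imipenem at 1 μg/ml or 4 μg/ml with test compound 200 μM to 0.195 μM. Incubated 22 hours to 24 hours at 35° C, OD600 read; MITC95 is lowest compound concentration inhibiting 95% of growth.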

[2] = test system: Escherichia coli expressing NDM-1 (CLB30005); assay: as above; type: cell-based; settings: 95% inhibition of bacterial growth, strain CLB30005
In short: as §2

[3] = test system: Klebsiella pneumoniae expressing VIM-1 (IHMA599644); assay: as above; type: cell-based; settings: 95% inhibition of bacterial growth, strain IHMA599644
In short: as §2

[4] = enzyme 1 pM, read-out: NDM1 IC50
[5] = enzyme 30 pM, read-out: VIM1 IC50
[6] = enzyme 2 pM, read-out: IMP1 IC50

NDM-1, sequence (C7C422 29-270, looked up, species assumed): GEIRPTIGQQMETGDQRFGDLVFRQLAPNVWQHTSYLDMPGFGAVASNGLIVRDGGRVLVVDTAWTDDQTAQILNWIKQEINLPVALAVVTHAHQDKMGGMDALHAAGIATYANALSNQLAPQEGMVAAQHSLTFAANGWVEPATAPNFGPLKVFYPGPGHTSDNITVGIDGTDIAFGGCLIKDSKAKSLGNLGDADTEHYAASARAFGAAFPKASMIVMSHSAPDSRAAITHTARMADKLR

Structure (SMILES) | IC50 (NDM-1; [4]) [nM] | IC50 (VIM-1; [5]) [nM] | IC50 (IMP-1; [6]) [nM] | IMP1 SM5741 MITC95 [1] [µM] | NDM1 EC30005 MITC95 [2] [µM] | VIM1 KP599644 MITC95 [3] [µM] | IC50 (NDM-1; NDM1 IC50, enzyme 1 pM) [nM] | IC50 (VIM-1; VIM1 IC50, enzyme 30 pM) [nM] | IC50 (IMP-1; IMP1 IC50, enzyme 2 pM) [nM]
CC(C)C[C@H](C(=O)O)[C@H](Cc1ccccc1)c1nnn[nH]1 [Example 7, (2S)-4-methyl-2-[(2S)-2-phenyl-1-(1H-tetrazol-5-yl)ethyl]pentanoic acid] | 19 | 3.3 | 52 | 62.5 | 18.8 | 37.5 |  |  | 
CC[C@H](C(=O)O)[C@H](Cc1ccccc1)c1nnn[nH]1 [Example 8, (2S,3S)-2-ethyl-4-phenyl-3-(1H-tetrazol-5-yl)butanoic acid] | 81 | 21 | 1800 | 125 | 9.4 | 62.5 |  |  | 
COCCC[C@H](C(=O)O)[C@H](Cc1ccccc1)c1nnn[nH]1 [Example 9, (2S)-5-methoxy-2-[(1S)-2-phenyl-1-(1H-tetrazol-5-yl)ethyl]pentanoic acid] | 97 | 63 | 850 | 25 | 31 | 200 |  |  | 
O=C(O)[C@@H](CC1CCCC1)[C@H](Cc1ccccc1)c1nnn[nH]1 [Example 10, (2S,3S)-2-(cyclopentylmethyl)-4-phenyl-3-(1H-tetrazol-5-yl)butanoic acid] | 47 | 29 | 48 | 7.0 | 50 | 150 |  |  | 
O=C(O)[C@@H](CCC1CCCCC1)[C@H](Cc1ccccc1)c1nnn[nH]1 [Example 11, (2S,3S)-2-(2-cyclohexylethyl)-4-phenyl-3-(1H-tetrazol-5-yl)butanoic acid] | 57 | 34 | 230 | 27 | 25 | >200 |  |  | 
O=C(O)[C@@H](C1CCOCC1)[C@H](Cc1ccccc1)c1nnn[nH]1 [Example 12, (2S,3S)-4-phenyl-2-(tetrahydro-2H-pyran-4-yl)-3-(1H-tetrazol-5-yl)butanoic acid] | 99 | 84.7 | 1050 | 200 | 12.5 | 200 |  |  | 
O=C(O)[C@@H](CC1CC1)[C@H](Cc1ccccc1)c1nnn[nH]1 [Example 13, (2S,3S)-2-(cyclopropylmethyl)-4-phenyl-3-(1H-tetrazol-5-yl)butanoic acid] | 128 | 16 | 460 | 150 | 12.5 | 50 |  |  | 
CC(C)=CCC[C@@H](C(=O)O)[C@H](Cc1ccccc1)c1nnn[nH]1 [Example 14, (2R)-6-methyl-2-[(1S)-2-phenyl-1-(1H-tetrazol-5-yl)ethyl]hept-5-enoic acid] | 150 | 37 | 1600 | 200 | 15.6 | 100 |  |  | 
O=C(O)[C@@H](C1CCCC1)[C@H](Cc1ccccc1)c1nnn[nH]1 [Example 17, (2S,3S)-2-cyclopentyl-4-phenyl-3-(1H-tetrazol-5-yl)butanoic acid] | 16 | 3.7 | 110 | 37.5 | 18.8 | 37.5 |  |  | 
CCCC(C)[C@H](C(=O)O)[C@H](Cc1ccccc1)c1nnn[nH]1 (stereo partly drawn) [Example 18, (2S)-3-methyl-2-((S)-2-phenyl-1-(1H-tetrazol-5-yl)ethyl)hexanoic acid] | 26 | 36 | 30 | 37.5 | 18.8 | 200 |  |  | 
CCC(C)[C@H](C(=O)O)[C@H](Cc1ccccc1)c1nnn[nH]1 (stereo partly drawn) [Example 19, (2S)-3-methyl-2-((S)-2-phenyl-1-(1H-tetrazol-5-yl)ethyl)pentanoic acid] | 31 | 24 | 62 | 50 | 9.4 | 50 |  |  | 
CC(C)[C@H](C(=O)O)[C@H](Cc1ccccc1)c1nnn[nH]1 [Example 20, (2S,3S)-2-isopropyl-4-phenyl-3-(1H-tetrazol-5-yl)butanoic acid] | 26 | 22 | 390 | 128 | 4.7 | 69 |  |  | 
O=C(O)[C@@H](CCF)[C@H](Cc1ccccc1)c1nnn[nH]1 [Example 21, (2S,3S)-2-(2-fluoroethyl)-4-phenyl-3-(1H-tetrazol-5-yl)butanoic acid] | 190 | 15 | 2700 | >200 | 75 | >200 |  |  | 
O=C(O)[C@@H](CC(F)F)[C@H](Cc1ccccc1)c1nnn[nH]1 [Example 22, (2S,3S)-2-(2,2-difluoroethyl)-4-phenyl-3-(1H-tetrazol-5-yl)butanoic acid] | 280 | 14 | 2600 | 200 | 31 | 50 |  |  | 
CC(C)C[C@H](C(=O)O)[C@@H](c1nnn[nH]1)[C@H](C)c1ccccc1 [Example 27, (2S,3S,4S)-2-isobutyl-4-phenyl-3-(1H-tetrazol-5-yl)pentanoic acid] | 16 | 7.7 | 62 | 13 | 15.6 | 37.5 |  |  | 
C[C@@H](c1ccccc1)[C@H](c1nnn[nH]1)[C@H](CCF)C(=O)O [Example 28, (2S,3S,4R)-2-(2-fluoroethyl)-4-phenyl-3-(1H-tetrazol-5-yl)pentanoic acid] | 310 | 190 | 1800 | >200 | 200 | >200 |  |  | 
CC[C@H](C(=O)O)[C@@H](c1nnn[nH]1)[C@@H](C)c1ccccc1 [Example 29, (2S,3S,4R)-2-ethyl-4-phenyl-3-(1H-tetrazol-5-yl)pentanoic acid] | 530 | 210 | 2300 | >200 | 25 | 200 |  |  | 
CCCC[C@@H](C(=O)O)[C@@H](Cc1ccc(Br)cc1)c1nnn[nH]1 [Example 30, (R)-2-((R)-2-(4-bromophenyl)-1-(1H-tetrazol-5-yl)ethyl)hexanoic acid] |  |  |  | 50 | >200 | >200 | 4700 | 240 | 220
O=C(O)[C@H](CCC1CCCCC1)[C@@H](Cc1ccccc1)c1nnn[nH]1 [Example 31, (2R,3R)-2-(2-cyclohexylethyl)-4-phenyl-3-(1H-tetrazol-5-yl)butanoic acid] | 740 | 590 | 410 | >200 | >200 | >200 |  |  | 

— US9839642B2, “Beta-tetrazolyl-propionic acids as metallo-beta-lactamase inhibitors” (priority 2014, dated 2017)
